Tests used:
EED (1-441)-His protein = target: T1, EED (1-441)-His protein (Homo sapiens, UniProt O75530); assay: EED-H3K27Me3 peptide competition binding assay by AlphaScreen; conditions: read-out: (a) IC50, EED Alphascreen binding Qualified
T1 construct: 30 nM EED (1-441)-His protein
Outline: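 Serially diluted compound (12 points, 3-fold) incubated 20 min with 30 nM EED(1-441)-His and 15 nM biotin-H3K27Me3(19-33) peptide in 25 mM HEPES pH 8, 0.02% Tween-20, 0.5% BSA. Ni-chelate acceptor/streptavidin donor beads (10 μg/mL each) added, 1 h rt dark; 615 nm emission normalized to controls, dose-response fit for IC50.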

[1] = test system: H3K27 methylation in G401 cell; assay: ELISA (H3K27 methylation) assay in G401 cells; type: cell-based, human; conditions: Homo sapiens, G-401, read-out: (c) IC50, ELISA Qualified
Outline: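 G401 cells treated 48 h with 3-fold dilutions (8 or 12 points, top 20 μM). Acid-extracted histones probed by ELISA for H3K27me3 or H3K27me2 with ECL readout, normalized to total H3. Percent inhibition versus DMSO fitted to dose-response curve for IC50.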

[2] = target: wild type PRC2 (wtPRC2) complex (Homo sapiens, UniProt O75530); assay: EED LC-MS assay (SAH production by PRC2); type: biochemical; conditions: read-out: (b) IC50, EED LC-MS Qualified
Outline: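 Pentameric PRC2 (EZH2, SUZ12, EED, Rbap48, AEBP), 12 nM final, preincubated 20 min with compound and SAM, then 1.5 μM biotinylated H3K27me0 peptide, 1 μM SAM, pH 8.0, 120 min at rt. SAH quantified by LC-MS/MS with d4-SAH; control-normalized activity fitted for IC50.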

T1 sequence (O75530 whole entry): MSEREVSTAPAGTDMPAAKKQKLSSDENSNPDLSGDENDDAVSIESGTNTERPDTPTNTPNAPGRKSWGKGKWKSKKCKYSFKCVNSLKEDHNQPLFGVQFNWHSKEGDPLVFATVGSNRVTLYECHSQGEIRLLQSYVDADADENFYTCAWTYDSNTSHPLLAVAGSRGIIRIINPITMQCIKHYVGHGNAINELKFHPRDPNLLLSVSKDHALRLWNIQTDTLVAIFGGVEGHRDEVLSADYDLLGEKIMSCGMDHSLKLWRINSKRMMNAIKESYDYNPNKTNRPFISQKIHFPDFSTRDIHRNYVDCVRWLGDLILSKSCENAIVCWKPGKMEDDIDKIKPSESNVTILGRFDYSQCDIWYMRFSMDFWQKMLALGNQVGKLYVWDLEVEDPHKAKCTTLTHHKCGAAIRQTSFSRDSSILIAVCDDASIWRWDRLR
Chain of wild type PRC2 (wtPRC2) complex (O75530 whole entry): as above
Chain of wild type PRC2 (wtPRC2) complex (Q15910 whole entry partner): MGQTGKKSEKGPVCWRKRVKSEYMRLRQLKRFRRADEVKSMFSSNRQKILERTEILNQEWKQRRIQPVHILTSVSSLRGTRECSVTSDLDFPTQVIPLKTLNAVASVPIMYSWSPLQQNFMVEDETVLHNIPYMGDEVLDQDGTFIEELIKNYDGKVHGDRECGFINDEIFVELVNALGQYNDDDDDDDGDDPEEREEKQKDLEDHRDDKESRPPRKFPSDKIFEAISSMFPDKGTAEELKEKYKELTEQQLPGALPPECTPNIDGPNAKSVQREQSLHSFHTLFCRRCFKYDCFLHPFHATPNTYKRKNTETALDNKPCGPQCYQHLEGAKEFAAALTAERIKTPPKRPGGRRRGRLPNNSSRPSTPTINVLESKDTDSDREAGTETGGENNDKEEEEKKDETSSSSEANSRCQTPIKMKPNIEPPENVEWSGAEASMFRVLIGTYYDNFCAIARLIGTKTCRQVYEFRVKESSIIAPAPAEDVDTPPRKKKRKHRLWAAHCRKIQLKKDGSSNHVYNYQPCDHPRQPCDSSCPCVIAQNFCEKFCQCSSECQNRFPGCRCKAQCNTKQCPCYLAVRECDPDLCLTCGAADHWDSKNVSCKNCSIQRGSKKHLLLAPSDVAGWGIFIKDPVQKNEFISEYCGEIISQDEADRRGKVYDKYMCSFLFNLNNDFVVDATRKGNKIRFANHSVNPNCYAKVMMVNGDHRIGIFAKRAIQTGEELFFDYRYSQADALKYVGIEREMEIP
Chain of wild type PRC2 (wtPRC2) complex (Q15022 whole entry partner): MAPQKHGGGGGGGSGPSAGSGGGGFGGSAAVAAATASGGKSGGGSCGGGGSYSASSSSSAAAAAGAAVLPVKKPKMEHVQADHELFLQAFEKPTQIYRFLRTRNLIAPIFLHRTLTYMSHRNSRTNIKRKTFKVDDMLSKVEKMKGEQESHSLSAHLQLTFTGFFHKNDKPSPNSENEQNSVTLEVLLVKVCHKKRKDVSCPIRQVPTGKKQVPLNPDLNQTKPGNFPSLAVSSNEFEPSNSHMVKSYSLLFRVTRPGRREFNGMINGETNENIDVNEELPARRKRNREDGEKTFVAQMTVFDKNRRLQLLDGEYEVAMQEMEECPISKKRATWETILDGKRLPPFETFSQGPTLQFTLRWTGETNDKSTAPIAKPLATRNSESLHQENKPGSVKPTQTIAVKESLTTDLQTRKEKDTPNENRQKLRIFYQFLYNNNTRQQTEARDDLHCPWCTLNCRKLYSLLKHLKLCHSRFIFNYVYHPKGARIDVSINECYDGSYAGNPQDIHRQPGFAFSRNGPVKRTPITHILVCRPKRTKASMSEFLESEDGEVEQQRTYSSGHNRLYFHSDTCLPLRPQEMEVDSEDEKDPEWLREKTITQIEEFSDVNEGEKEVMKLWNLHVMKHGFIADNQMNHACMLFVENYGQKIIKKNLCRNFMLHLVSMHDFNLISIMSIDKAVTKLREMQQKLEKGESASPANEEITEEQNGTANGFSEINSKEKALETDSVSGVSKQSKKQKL
Chain of wild type PRC2 (wtPRC2) complex (Q09028 whole entry partner): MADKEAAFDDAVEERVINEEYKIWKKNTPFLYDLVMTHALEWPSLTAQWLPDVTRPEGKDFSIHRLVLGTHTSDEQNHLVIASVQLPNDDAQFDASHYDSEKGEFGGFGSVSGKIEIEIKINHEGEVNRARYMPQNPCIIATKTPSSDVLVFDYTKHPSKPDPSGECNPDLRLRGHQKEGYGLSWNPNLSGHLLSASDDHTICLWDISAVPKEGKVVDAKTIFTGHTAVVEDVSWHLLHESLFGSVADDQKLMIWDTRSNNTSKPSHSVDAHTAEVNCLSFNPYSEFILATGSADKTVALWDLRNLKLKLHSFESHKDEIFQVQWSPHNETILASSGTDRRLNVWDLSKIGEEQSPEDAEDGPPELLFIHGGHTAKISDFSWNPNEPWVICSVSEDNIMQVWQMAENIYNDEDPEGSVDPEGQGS
Chain of wild type PRC2 (wtPRC2) complex (Q6ZN18 whole entry partner): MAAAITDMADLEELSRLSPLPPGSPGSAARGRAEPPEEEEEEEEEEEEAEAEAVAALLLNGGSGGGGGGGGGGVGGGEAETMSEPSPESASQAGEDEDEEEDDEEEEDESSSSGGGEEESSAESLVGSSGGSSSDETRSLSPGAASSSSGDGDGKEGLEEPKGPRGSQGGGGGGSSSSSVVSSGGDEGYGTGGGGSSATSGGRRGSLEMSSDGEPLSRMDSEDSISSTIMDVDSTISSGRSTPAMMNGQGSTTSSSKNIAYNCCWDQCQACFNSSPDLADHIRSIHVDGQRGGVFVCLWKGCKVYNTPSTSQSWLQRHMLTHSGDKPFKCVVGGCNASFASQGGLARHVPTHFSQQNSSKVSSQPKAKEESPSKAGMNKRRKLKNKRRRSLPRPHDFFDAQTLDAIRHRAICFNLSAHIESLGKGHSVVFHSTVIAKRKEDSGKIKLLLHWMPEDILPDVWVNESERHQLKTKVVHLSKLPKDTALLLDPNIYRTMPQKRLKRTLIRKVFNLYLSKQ

Row | SMILES | IC50 (EED (1-441)-His protein) [nM] | IC50 [1] [nM] | IC50 [2] [nM]
1 | COc1cccc(F)c1CNc1ccc(-c2c(C)nn(C)c2C)c2nncn12 [Example 124, N-(2-fluoro-6-methoxybenzyl)-8-(1,3,5-trimethyl-1H-pyrazol-4-yl)-[1,2,4] triazolo[4,3-a]pyridin-5-amine] | 52.1 | 24.7 | 64.5
2 | COc1cccc(F)c1CNc1ccc(-c2ccc(S(=O)(=O)NCCO)cc2)c2nncn12 [Example 126, 4-(5-((2-fluoro-6-methoxybenzyl)amino)-[1,2,4]triazolo[4,3-a]pyridin-8-yl)-N-(2-hydroxyethyl) benzenesulfonamide] | 11.5 | 5 | 1740
3 | COc1ccccc1CNc1ccc(-c2ccc(S(=O)(=O)C(C)C)nc2)c2nncn12 [Example 127, 8-(6-(isopropylsulfonyl)pyridin-3-yl)-N-(2-methoxybenzyl)-[1,2,4]triazolo[4,3-a] pyridin-5-amine] | 21.7 | 14.2 | 572
4 | COc1ccccc1CNc1ccc(-c2ccc(S(=O)(=O)C3CCN(C)CC3)cc2)c2nncn12 [Example 128, N-(2-methoxybenzyl)-8-(4-((1-methylpiperidin-4-yl)sulfonyl)phenyl)-[1,2,4] triazolo[4,3-a]pyridin-5-amine] | 33.2 | 18.5 | 224
5 | COc1cccc(F)c1CNc1ccc(-c2ccc(N3CCN(C(C)C)CC3)nc2)c2nncn12 [Example 130, N-(2-fluoro-6-methoxybenzyl)-8-(6-(4-isopropylpiperazin-1-yl)pyridin-3-yl)-[1,2,4]triazolo[4,3-a]pyridin-5-amine] | 31.1 | 80.9 | 62.5
6 | COc1cccc(F)c1CNc1ccc(-c2cnc(N3CCN(C(C)C)CC3)nc2)c2nncn12 [Example 131, N-(2-fluoro-6-methoxybenzyl)-8-(2-(4-isopropylpiperazin-1-yl)pyrimidin-5-yl)-[1,2,4]triazolo[4,3-a] pyridin-5-amine] | 32.2 | 81.2 | 181
7 | COc1cccc(F)c1CNc1ccc(-c2ccc(S(=O)(=O)C3CCNCC3)cc2)c2nncn12 [Example 132, N-(2-fluoro-6-methoxybenzyl)-8-(4-(piperidin-4-ylsulfonyl)phenyl)-[1,2,4] triazolo[4,3-a]pyridin-5-amine] | 69.1 | 21.8 | 64.9
8 | COc1cccc(F)c1CNc1ccc(-c2ccc(S(=O)(=O)C3CCN(C)CC3)cc2)c2nncn12 [Example 133, N-(2-fluoro-6-methoxybenzyl)-8-(4-((1-methylpiperidin-4-yl)sulfonyl)phenyl)-[1,2,4]triazolo[4,3-a] pyridin-5-amine] | 5 | 5.3 | 65.8
9 | COc1cccc(F)c1CNc1ccc(-c2c(C)noc2C)c2nncn12 [Example 139, 8-(3,5-dimethylisoxazol-4-yl)-N-(2-fluoro-6-methoxybenzyl)-[1,2,4]triazolo[4,3-a] pyridin-5-amine] | 26 | 11.7 | 46.5
10 | COc1cccc(F)c1CNc1ccc(-c2cncc(S(C)(=O)=O)c2)c2nncn12 [Example 140, N-(2-fluoro-6-methoxybenzyl)-8-(5-(methylsulfonyl)pyridin-3-yl)-[1,2,4]triazolo[4,3-a] pyridin-5-amine] | 17.5 | 18.8 | 268
11 | COc1cccc(F)c1CNc1ccc(-c2cccc(S(C)(=O)=O)c2)c2nncn12 [Example 142, N-(2-fluoro-6-methoxybenzyl)-8-(3-(methylsulfonyl)phenyl)-[1,2,4]triazolo[4,3-a]pyridin-5-amine] | 13.6 | 34.8 | 106
12 | CCN1CCC(S(=O)(=O)c2ccc(-c3ccc(NCc4ccccc4OC)n4cnnc34)cn2)CC1 [Example 143, 8-(6-((1-ethylpiperidin-4-yl)sulfonyl)pyridin-3-yl)-N-(2-methoxybenzyl)-[1,2,4] triazolo[4,3-a]pyridin-5-amine] | 31.1 | 53.2 | 323
13 | COc1cccc(F)c1CNc1ccc(-c2cncnc2)c2nncn12 [Example 147, N-(2-fluoro-6-methoxybenzyl)-8-(pyrimidin-5-yl)-[1,2,4]triazolo[4,3-a]pyridin-5-amine] | 77.4 | 42.5 | 60.8
14 | COc1cncc(-c2ccc(NCc3c(F)cccc3OC)n3cnnc23)c1 [Example 148, N-(2-fluoro-6-methoxybenzyl)-8-(5-methoxypyridin-3-yl)-[1,2,4] triazolo[4,3-a]pyridin-5-amine] | 28.9 | 60.6 | 99.8
15 | CCN1CCC(S(=O)(=O)c2ccc(-c3ccc(NCc4c(F)cccc4OC)n4cnnc34)cn2)CC1 [Example 149, 8-(6-((1-ethylpiperidin-4-yl)sulfonyl)pyridin-3-yl)-N-(2-fluoro-6-methoxybenzyl)-[1,2,4]triazolo[4,3-a]pyridin-5-amine] | 18.2 | 14.9 | 27.1
16 | COc1cccc(F)c1CNc1ccc(-c2cnccc2C)c2nncn12 [Example 150, N-(2-fluoro-6-methoxybenzyl)-8-(4-methylpyridin-3-yl)-[1,2,4]triazolo[4,3-a] pyridin-5-amine] | 35.6 | 14.2 | 94.8
17 | COc1cccc(F)c1CNc1ccc(-c2ccc(O)nc2)c2nncn12 [Example 151, 5-(5-((2-fluoro-6-methoxybenzyl)amino)-[1,2,4]triazolo[4,3-a]pyridin-8-yl) pyridin-2-ol] | 66.4 | 80.3 | 676
18 | CCN1CCN(c2ccc(-c3ccc(NCc4ccccc4OC)n4cnnc34)cc2)CC1 [Example 152, 8-(4-(4-ethylpiperazin-1-yl)phenyl)-N-(2-methoxybenzyl)-[1,2,4]triazolo[4,3-a] pyridin-5-amine] | 65.9 | 101 | 207
19 | COc1cccc(F)c1CNc1ccc(-c2ccc(N(C)S(C)(=O)=O)cc2)c2nncn12 [Example 154, N-(4-(5-((2-fluoro-6-methoxybenzyl)amino)-[1,2,4]triazolo[4,3-a]pyridin-8-yl)phenyl)-N-methyl methanesulfonamide] | 4.5 | 4.9 | 83.4
20 | COc1cccc(F)c1CNc1ccc(-c2ccc(OCCO)cc2)c2nncn12 [Example 157, 2-(4-(5-((2-fluoro-6-methoxybenzyl)amino)-[1,2,4]triazolo[4,3-a]pyridin-8-yl)phenoxy)ethanol] | 40.4 | 43.1 | 152
21 | COc1cccc(F)c1CNc1ccc(-c2cncc(F)c2)c2nncn12 [Example 158, N-(2-fluoro-6-methoxybenzyl)-8-(5-fluoropyridin-3-yl)-[1,2,4]triazolo[4,3-a] pyridin-5-amine] | 13.8 | 19.6 | 38.9
22 | COc1cccc(F)c1CNc1ccc(-c2ccc(F)nc2)c2nncn12 [Example 159, N-(2-fluoro-6-methoxybenzyl)-8-(6-fluoropyridin-3-yl)-[1,2,4]triazolo[4,3-a] pyridin-5-amine] | 49 | 41 | 102
23 | COc1cccc(F)c1CNc1ccc(-c2cnc(S(C)(=O)=O)c(C)c2)c2nncn12 [Example 160, N-(2-fluoro-6-methoxybenzyl)-8-(5-methyl-6-(methylsulfonyl)pyridin-3-yl)-[1,2,4]triazolo[4,3-a] pyridin-5-amine] | 15.7 | 14.8 | 351
24 | COc1cccc(F)c1CNc1ccc(-c2cnc(C)nc2)c2nncn12 [Example 161, N-(2-fluoro-6-methoxybenzyl)-8-(2-methylpyrimidin-5-yl)-[1,2,4] triazolo[4,3-a]pyridin-5-amine] | 48.7 | 26.1 | 90.1
25 | COc1cc(F)cc(F)c1CNc1ccc(-c2ccc(CN(C)C)cc2)c2nncn12 [Example 162, N-(2,4-difluoro-6-methoxybenzyl)-8-(4-((dimethylamino)methyl)phenyl)-[1,2,4]triazolo[4,3-a]pyridin-5-amine] | 16.6 | 14.3 | 77.5
26 | COc1cccc(F)c1CNc1ccc(-c2ccc(N(C)S(C)(=O)=O)nc2)c2nncn12 [Example 163, N-(5-(5-((2-fluoro-6-methoxybenzyl)amino)-[1,2,4]triazolo[4,3-a]pyridin-8-yl)pyridin-2-yl)-N-methylmethanesulfonamide] | 16.6 | 10.7 | 50.5
27 | COc1cccc(F)c1CNc1ccc(-c2ccc(C)nc2)c2nncn12 [Example 164, N-(2-fluoro-6-methoxybenzyl)-8-(6-methylpyridin-3-yl)-[1,2,4]triazolo[4,3-a]pyridin-5-amine] | 33.2 | 36 | 120
28 | COc1cccc(F)c1CNc1ccc(-c2cncc(C)c2)c2nncn12 [Example 165, N-(2-fluoro-6-methoxybenzyl)-8-(5-methylpyridin-3-yl)-[1,2,4]triazolo[4,3-a]pyridin-5-amine] | 15.9 | 14 | 38
